# Data published in patent publication US20220183279A1, “STABILIZED THIOKETONE FORMULATIONS” (priority 2019, published 2022).
# Experiment: Effect of 5% by weight additives on prothioconazole in N,N-dimethyldecanamide, LED 350 nm, 24 hours
# Format: physicochemical
# Settings: 0.4 g prothioconazole, 1.5 g N,N-dimethyldecanamide, 0.1 g stabiliser (5% by weight), 19 mW/cm^2, 24 hours, Comparison without additive 1539 ppm
# Method: 0.4 g of prothioconazole, 1.5 g of N,N-dimethyldecanamide and 0.1 g of the respective stabiliser were combined in a 20 ml vial. The reaction mixtures were irradiated in a photoreactor with stirring (magnetic stirrer) using LED lamps (wavelength 350 nm, 19 mW/cm^2) for 24 hours. Samples were then taken and the respective content of compound III was determined by HPLC chromatography (column: Agilent Zorbax Eclipse Plus C18, 50×4.6 mm, 1.8 μm, mobile phase: acetonitrile/0.1% by weight of aqueous phosphoric acid, gradient at 2 ml/min, temperature: 45° C., external standard).
row,Compound III (ppm),Molecule
1,749,O[C@H](CS)[C@H](O)CS (racemic) [DL-Dithiothreitol]
2,2754,O=C(O)C=Cc1ccc(O)cc1 [4-Hydroxycinnamic acid]
3,1706,COc1ccc(O)cc1 [4-Methoxyphenol]
4,576,"Cc1cc(C(C)(C)C)c(O)c(C(C)(C)C)c1 [Butylated hydroxytoluene (BHT), Butylated hydroxytoluene]"
5,616,O=C(O)/C=C/c1ccc(O)c(O)c1 [Caffeic acid]
6,580,C=CCc1ccc(O)c(OC)c1 [Eugenol]
7,2059,COc1cc(/C=C/C(=O)O)ccc1O [Ferulic acid]
8,3700,O=C(O)c1cc(O)c(O)c(O)c1 [Gallic acid]
9,1102,O=C(O)CNC(=O)CCS [N-(Mercaptopropionyl)glycine]
10,1377,CCCCC(CC)COC(=O)C(C#N)=C(c1ccccc1)c1ccccc1 (stereo not drawn) [Octocrylene]

row,Molecule,Compound III (ppm)
1,Cc1cc(O)cc2c1O[C@](C)(CCC[C@H](C)CCC[C@H](C)CCCC(C)C)CC2 [(+)-delta-Tocopherol],81
2,(+/−)-alpha-Tocopherol,96
